From patent US20260078103A1, “ISOQUINOLONES AS PI3K INHIBITORS” (OnKure, Inc., priority 2022, published 2026)
Like-named read-outs stand apart in the source and are kept apart here.

Tests used:
Type in all cases: cell-based
[1] = tested on: phosphorylation of AKT (pAKT) in T47D cells expressing mutant PI3Ka (H1047R); test: In vitro cell pAKT (Ser473) HTRF, T47D cells; settings: cellular pAKT, T47D cells, mutant PI3Ka (H1047R), 6 hours, read-out: Avg T-47D IC50
Procedure, shortened: (§1)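 T47D cells (RPMI, 10% FBS, 0.2 units/mL insulin) or SKBR3 cells (McCoy's 5a, 10% FBS) were seeded onto 10-point compound dilutions and incubated 6 h at 37 °C. After lysis, pAKT was detected overnight by HTRF (Eu cryptate/d2). IC50 was fitted from % inhibition relative to 0.1% DMSO and 10 uM alpelisib controls.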

[2] = tested on: T47D cells expressing mutant PI3Ka (H1047R); test: In vitro cell proliferation, T47D cells (CellTiter-Glo); settings: inhibition of proliferation, read-out: Avg T-47D EC50
Procedure, shortened: (§2)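 1,500 cells/well seeded onto pre-stamped 10-pt dilution plates; T47D in RPMI + 10% FBS + insulin 0.2 units/mL, SKBR3 in McCoys 5a + 10% FBS. 72 h, 37 °C, 5% CO2. CTG readout. 0% = 0.1% DMSO, 100% = 10 uM Alpelisib; sigmoidal fit gives EC50.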

[3] = tested on: SKBR3 cells express WT PI3Ka; test: In vitro cell proliferation, SKBR3 cells (CellTiter-Glo); settings: inhibition of proliferation
Procedure, shortened: as §2

[4] = tested on: phosphorylation of AKT (pAKT) in SKBR3 cells express WT PI3Ka; test: In vitro cell pAKT (Ser473) HTRF, SKBR3 cells; settings: cellular pAKT
Procedure, shortened: as §1

Compound | IC50 ([1]; Homo sapiens, T47D, 6 h) | EC50 ([2]; Homo sapiens, T47D, 72 h) | EC50 ([3]; Homo sapiens, SK-BR-3, 72 h) | IC50 ([4]; Homo sapiens, SK-BR-3, 6 h) | IC50 [1] | EC50 ([2]; 72 hours) | EC50 ([3]; 72 hours) | IC50 ([4]; 6 hours)
Cc1cc([C@@H](C)Nc2ccccc2C(=O)O)c2cc(-c3cnc(CC(F)(F)F)nc3)n(C)c(=O)c2c1 [Example 348] | 1 to 500 nM | 1 to 500 nM | > 15000 nM | > 15000 nM | – | – | – | –
CCOc1ncc(-c2cc3c([C@@H](C)Nc4ccccc4C(=O)O)cc(F)cc3c(=O)n2C)s1 [Example 349] | 1 to 500 nM | 1 to 500 nM | > 15000 nM | > 15000 nM | – | – | – | –
CCON1CCN(c2cc3c([C@@H](C)Nc4cccc(F)c4C(=O)O)cc(C)cc3c(=O)n2C)CC1 [Example 350] | 1 to 500 nM | 1 to 500 nM | > 15000 nM | > 15000 nM | – | – | – | –
Cc1cc([C@@H](C)Nc2cccc(F)c2C(=O)O)c2cc(-c3ccc(OC4CC4)nc3)n(C)c(=O)c2c1 [Example 351] | 1 to 500 nM | 1 to 500 nM | > 15000 nM | > 15000 nM | – | – | – | –
Cc1cc([C@@H](C)Nc2cccc(F)c2C(=O)O)c2cc(N3CCN(c4ccc(C)nc4)CC3)n(C)c(=O)c2c1 [Example 352] | 1 to 500 nM | 1 to 500 nM | 2000 to 15000 nM | 2000 to 15000 nM | – | – | – | –
Cc1ccc(N2CCN(c3cc4c([C@@H](C)Nc5ccccc5C(=O)O)cc(F)cc4c(=O)n3C)CC2)cn1 [Example 353] | 1 to 500 nM | 1 to 500 nM | 2000 to 15000 nM | 500 to 2000 nM | – | – | – | –
Cc1cc(C(C)Nc2cccc(C#N)c2C(=O)O)c2cc(N3CCN(CC(F)(F)F)CC3)n(C)c(=O)c2c1 (stereo not drawn) [Example 354] | – | – | – | – | 2000 to 15000 nM | 2000 to 15000 nM | > 15000 nM | > 15000 nM
Cc1ccc(N2CCN(c3cc4c([C@@H](C)Nc5cccc(F)c5C(=O)O)cc(F)cc4c(=O)n3C)CC2)cn1 [Example 362] | 1 to 500 nM | 1 to 500 nM | 2000 to 15000 nM | 2000 to 15000 nM | – | – | – | –
CCOc1ncc(-c2cc3c([C@@H](C)Nc4cccc(F)c4C(=O)O)cc(F)cc3c(=O)n2C)s1 [Example 363] | 1 to 500 nM | 1 to 500 nM | > 15000 nM | > 15000 nM | – | – | – | –
Cc1cc([C@@H](C)Nc2ccccc2C(=O)O)c2cc(N3CCN(c4cnc(C)s4)CC3)n(C)c(=O)c2c1 [Example 364] | 1 to 500 nM | 1 to 500 nM | 2000 to 15000 nM | 500 to 2000 nM | – | – | – | –
Cc1cc([C@@H](C)Nc2ccccc2C(=O)O)c2cc(-c3cc(F)c4nn(C)cc4c3)n(C)c(=O)c2c1 [Example 365] | – | – | – | – | 1 to 500 nM | 1 to 500 nM | > 15000 nM | > 15000 nM
Cc1cc([C@@H](C)Nc2ccccc2C(=O)O)c2cc(-c3cc(F)c4c(cnn4C)c3)n(C)c(=O)c2c1 [Example 366] | 1 to 500 nM | 1 to 500 nM | 2000 to 15000 nM | 2000 to 15000 nM | – | – | – | –
Cc1cc([C@@H](C)Nc2ccccc2C(=O)O)c2cc(N3CCN(c4cnc(C)c(F)c4)CC3)n(C)c(=O)c2c1 [Example 367] | – | – | – | – | 1 to 500 nM | 1 to 500 nM | 2000 to 15000 nM | 2000 to 15000 nM
Cc1cc([C@@H](C)Nc2ccccc2C(=O)O)c2cc(-c3cnc(CF)nc3)n(C)c(=O)c2c1 [Example 369] | 1 to 500 nM | 1 to 500 nM | > 15000 nM | > 15000 nM | – | – | – | –
Cc1cc([C@@H](C)Nc2cccc(F)c2C(=O)O)c2cc(-c3cnc(C(F)(F)F)nc3)n(C)c(=O)c2c1 [Example 371] | – | – | – | – | 500 to 2000 nM | 500 to 2000 nM | > 15000 nM | > 15000 nM
C[C@@H](Nc1cccc(F)c1C(=O)O)c1cc(F)cc2c(=O)n(C)c(-c3cnc(C(F)(F)F)nc3)cc12 [Example 372] | – | – | – | – | 2000 to 15000 nM | 2000 to 15000 nM | > 15000 nM | > 15000 nM
C#Cc1ccc(N[C@H](C)c2cc(C)cc3c(=O)n(C)c(-c4cnc(C(F)(F)F)nc4)cc23)c(C(=O)O)n1 [Example 375] | – | – | – | – | 1 to 500 nM | 1 to 500 nM | > 15000 nM | > 15000 nM
Cc1cc([C@@H](C)Nc2ccc(Cl)nc2C(=O)O)c2cc(-c3cnc(C(F)(F)F)nc3)n(C)c(=O)c2c1 [Example 376] | 1 to 500 nM | 1 to 500 nM | > 15000 nM | 2000 to 15000 nM | – | – | – | –
Cc1cc([C@@H](C)Nc2cnc(Cl)nc2C(=O)O)c2cc(N3CCN(CC(F)(F)F)CC3)n(C)c(=O)c2c1 [Example 377] | – | – | – | – | 2000 to 15000 nM | 2000 to 15000 nM | > 15000 nM | > 15000 nM
C[C@@H](Nc1ccccc1C(=O)O)c1cc(F)cc2c(=O)n(C)c(-c3cnc(-c4ccc(F)cn4)c(F)c3)cc12 [Example 378] | 1 to 500 nM | 1 to 500 nM | > 15000 nM | > 15000 nM | – | – | – | –

Compound | IC50 ([1]; Homo sapiens, T47D, 6 h) | EC50 ([2]; Homo sapiens, T47D, 72 h) | EC50 ([3]; Homo sapiens, SK-BR-3, 72 h) | IC50 ([4]; Homo sapiens, SK-BR-3, 6 h) | IC50 [1] | EC50 ([2]; 72 hours) | EC50 ([3]; 72 hours) | IC50 ([4]; 6 hours)
C[C@@H](Nc1cccc(F)c1C(=O)O)c1cc(F)cc2c(=O)n(C)c(-c3ccc(OC4CC4)nc3)cc12 [Example 379] | 1 to 500 nM | 1 to 500 nM | > 15000 nM | > 15000 nM | – | – | – | –
Cc1cc([C@@H](C)Nc2ccccc2C(=O)O)c2cc(N3CCN(c4ccc(CF)nc4)CC3)n(C)c(=O)c2c1 [Example 381] | – | – | – | – | 1 to 500 nM | 1 to 500 nM | 2000 to 15000 nM | 2000 to 15000 nM
Cc1cc([C@@H](C)Nc2ccccc2C(=O)O)c2cc(-c3cnc(C(F)(F)F)cn3)n(C)c(=O)c2c1 [Example 382] | 1 to 500 nM | 1 to 500 nM | > 15000 nM | > 15000 nM | – | – | – | –
Cc1cc([C@@H](C)Nc2ccccc2C(=O)O)c2cc(-c3ncc(C(F)(F)F)cn3)n(C)c(=O)c2c1 [Example 383] | 1 to 500 nM | 1 to 500 nM | > 15000 nM | > 15000 nM | – | – | – | –
Cc1cc([C@@H](C)Nc2ccc(F)nc2C(=O)O)c2cc(-c3cnc(C(F)(F)F)nc3)n(C)c(=O)c2c1 [Example 387] | – | – | – | – | 500 to 2000 nM | 1 to 500 nM | > 15000 nM | > 15000 nM
CC(Nc1cccc(F)c1C(=O)O)c1cc(F)cc2c(=O)n(C)c(-c3cnc(OC4CC(F)C4)c(F)c3)cc12 (stereo not drawn) [Example 388] | – | – | – | – | 1 to 500 nM | 1 to 500 nM | > 15000 nM | > 15000 nM
C[C@@H](Nc1cccc(F)c1C(=O)O)c1cc(F)cc2c(=O)n(C)c(-c3cnc(OC4CC4)c(F)c3)cc12 [Example 390] | – | – | – | – | 1 to 500 nM | 1 to 500 nM | > 15000 nM | > 15000 nM
Cc1cc([C@@H](C)Nc2ccccc2C(=O)O)c2cc(-c3cnc(CF)cn3)n(C)c(=O)c2c1 [Example 393] | 1 to 500 nM | 1 to 500 nM | > 15000 nM | > 15000 nM | – | – | – | –
Cc1cc([C@@H](C)Nc2ccccc2C(=O)O)c2cc(-c3cnc(OC4CC4)cn3)n(C)c(=O)c2c1 [Example 394] | – | – | – | – | 1 to 500 nM | 1 to 500 nM | > 15000 nM | > 15000 nM
Cc1cc([C@@H](C)Nc2ccccc2C(=O)O)c2cc(-c3cnc(C(C)(F)F)cn3)n(C)c(=O)c2c1 [Example 395] | – | – | – | – | 1 to 500 nM | 1 to 500 nM | > 15000 nM | > 15000 nM
Cc1cc([C@@H](C)Nc2ccccc2C(=O)O)c2cc(-c3ccc(C(F)(F)F)cn3)n(C)c(=O)c2c1 [Example 396] | 1 to 500 nM | 1 to 500 nM | > 15000 nM | > 15000 nM | – | – | – | –
Cc1ncncc1N1CCN(c2cc3c([C@@H](C)Nc4cccc(F)c4C(=O)O)cc(F)cc3c(=O)n2C)CC1 [Example 397] | – | – | – | – | 500 to 2000 nM | 1 to 500 nM | > 15000 nM | > 15000 nM
C[C@@H](Nc1cccc(F)c1C(=O)O)c1cc(F)cc2c(=O)n(C)c(N3C4CCC3CN(CC(F)(F)F)C4)cc12 [Example 398] | 1 to 500 nM | 1 to 500 nM | > 15000 nM | 2000 to 15000 nM | – | – | – | –
Cc1cc([C@@H](C)Nc2ccccc2C(=O)O)c2cc(Cl)n(C)c(=O)c2c1 [Example 400] | 500 to 2000 nM | 500 to 2000 nM | > 15000 nM | > 15000 nM | – | – | – | –
Cc1ncc(-c2ncc(-c3cc4c([C@@H](C)Nc5cccc(F)c5C(=O)O)cc(F)cc4c(=O)n3C)cc2F)cc1F [Example 403] | 1 to 500 nM | 1 to 500 nM | > 15000 nM | > 15000 nM | – | – | – | –
C[C@@H](Nc1cccc(F)c1C(=O)O)c1cc(F)cc2c(=O)n(C)c(-c3cnc(-c4cncc(F)c4)c(F)c3)cc12 [Example 404] | 1 to 500 nM | 1 to 500 nM | > 15000 nM | > 15000 nM | – | – | – | –
Cc1cc([C@@H](C)Nc2ccccc2C(=O)O)c2cc(N3CC(CC(F)(F)F)C3)n(C)c(=O)c2c1 [Example 405] | 1 to 500 nM | 500 to 2000 nM | > 15000 nM | > 15000 nM | – | – | – | –
CC(Nc1cccc(F)c1C(=O)O)c1cc(F)cc2c(=O)n(C)c(-c3ccc(OC4CC(F)C4)nc3)cc12 (stereo not drawn) [Example 407] | – | – | – | – | 1 to 500 nM | 1 to 500 nM | > 15000 nM | > 15000 nM
Cc1ccc(C2CN(c3cc4c([C@@H](C)Nc5cccc(F)c5C(=O)O)cc(F)cc4c(=O)n3C)C2)cn1 [Example 409] | – | – | – | – | 500 to 2000 nM | 500 to 2000 nM | > 15000 nM | > 15000 nM
